Measurements: patent US6605639B1, “Ligands of nuclear receptor” (Nuclear Receptor Research, Ltd., priority 1998, dated 2003)
“And” between values parts separate entries of the source, which are not always exact repeats. Equal values may be shown once.

Key:
[1] = system: cholesterol-7α hydroxylase; experiment: Formation of 7α-hydroxycholesterol in hepatic microsome of treated rats; format: in vivo, rat; conditions: for 7-α-Hydorxycholesterol / 7-α-Hydorxycholesterol (conversion rate): 7 times, 1% cholesterol feed, average of 5 rats
Experimental: To examine the function mechanism of the compounds of the present invention for promoting bile acid excretion, an experiment was carried out to study the effect on a nuclear receptor LXR. It is assumed that LXR, which is a special nuclear receptor in the liver, might be a cholesterol sensor acting with 22-hydroxycholesterol as a ligand (Bethany A. Janowski at al., Nature 383:728-731, 1996). When cholesterol is accumulated in excess in a respective organ, LXR binds to the ligand, forms a heterodimer with RXR, and then binds to the hormone response element. This binding serves as a signal for promoting the oxidation of cholesterol into bile acid to be excreted from the body, thereby reducing deposited cholesterol. Accordingly, the liver is the organ which accumulates cholesterol in the largest amount and, at the same time, releases cholesterol as bile acid in the largest amount. It is estimated that the ability of the compounds of the present invention to promote the excretion of bile acid into feces would be established as follows. In the liver, RXR and LXR bind to the corresponding ligands, subsequently form a heterodimer with each other, and thus promote the expression of colesterol-7α-hydroxylase which is the rate-limiting enzyme in the biosynthesis pathway of bile acid. That is to say, it is estimated that the compounds of the present invention, ligands of RXR, would promote the transcription of the gene of colesterol-7α-hydroxylase (i.e., the enzyme of the rate state in the bile acid biosynthesis in the liver) and thus enhance the expression of colesterol-7α-hydroxylase. […] Accordingly, it can be concluded that the difference between the effects of clofibrate and the compounds of the present invention on cholesterol metabolism resides in that the former is a ligand of PPARα which is not capable of forming a heterodimer with LXR while the latter enhance the transcription of cholesterol oxidase gene RXR ligand-dependently and thus promote the excretion as bile acid from the body. These findings can be regarded as one major aspect of the present invention.
The experiment was carried out as follows. For each compound, 10 male Sprague Dawley rats weighing about 200 g were divided into 2 groups at random and fed for a week with a powdery rat feed (CE-2; Nippon Crea Co., Ltd.) containing 1% of cholesterol and drinking water ad libitum. The compounds of the present invention were suspended in a 2% acacia solution and orally administered by force once a day 7 times continuously in a dose of 5 mg/kg (Compound-1 and Compound-26) or 20 mg/kg (Compound-6 and Compound-14). In the early morning of the day 8, each animal was killed by blood loss. After refluxing with physiological saline, the liver was taken out immediately. Then 4 times as much 250 mM sucrose solution (containing 75 mM of nicotinamide, 1 mM of EDTA and 0.5 mM of MgCl2) was added to the liver and the mixture was ground with the use of a Teflon homogenizer. Then the liquid ground matter was centrifuged at 9500G for 15 minutes at 4° C. and the mitochondria-free supernatant thus obtained was further centrifuged at 105000G for 60 minutes to thereby separate a microsome fraction. By using the microsome thus separated, the yield of […] was measured in a conventional manner and the conversion rate was calculated.

[2] = system: male ICR and ddY mice; experiment: Serum total cholesterol lowering effect in mice; format: in vivo, mouse; conditions: 8 days; for Serum total cholesterol, % change: vs control; for Serum total cholesterol: Mean±SE
From the text: Effect of serum cholesterol lowering agents varies among animals. Namely, some agents which are effective on a certain animal exert […] on others. For example, compactin, which is an HMG CoA reductase inhibitor, cannot lower the serum total cholesterol level when administered to rodents such as rat or mouse. This is because even though HMG CoA reductase is inhibited in the rodent liver, the enzyme is biosynthesized in an amount in excess of that for compensating the inhibition so that the inhibitory effect is negated. Accordingly, it is favorable to calibrate the effect of lowering serum total cholesterol level in as many animals as possible. Concerning the effect of the compounds of the present invention on the serum total cholesterol level, an assay was made with the use of mice. After adding these compounds to a standard powdery feed for rat and mouse, the resultant mixtures were molded into pellets and given for 8 days to male ICR and ddY mice aged 5 weeks. In the afternoon of the day 8, the blood of each animal was collected from the heart and the total cholesterol in the serum was determined. The doses were determined as the maximum dose, in which body weight gain was not suppressed after orally administering for 1 week, and as the ¼ dose thereof.
Each value is represented in Mean±SE (n=10). a) In the case of Compound-1, the control group consisted of 23 animals while the 0.04% and 0.01% groups each consisted of 12 animals.

[3] = system: male Wistar rats; experiment: Oral administration of Compound-5 to rats: toxicity and Compound-1 in the blood; conditions: rat, in vivo
Experimental: Male Wistar rats (n=4) weighing about 200 g were employed and the concentration of Compound-1 contained in the serum was expressed in mean±SE (FIG. 9).
In FIG. 9, open circles show a case wherein Compound-5 was solubilized with HCO-60 and orally administered in a dose of 2 mg/kg.
Solid circles show a case wherein Compound-5 was suspended in an acacia solution and orally administered in a dose of 20 mg/kg. Per part of the serum collected with the passage of time, ethanol containing 1% of acetic acid was added and the mixture was allowed to stand in the dark at room temperature for 7 days. Then Compound-1 was determined by high performance liquid chromatography.
Open squares show a case wherein Compound-5 was suspended in an acacia solution and orally administered. Then the blood was collected at definite points and Compound-1 was determined by high performance liquid chromatography immediately thereafter. […] Separately, Compound-5 suspended in an acacia solution was orally administered to rats having been cannulated into the portal vein. Then the portal blood was collected with the passage of time and Compound-1 was determined.

[4] = system: bovine serum; experiment: Reaction with serum (Schiff base formation): free compound and recovery; conditions: After 24 hours
Experimental: To recover such a compound in a free state from plasma, it is required to add a large amount of a water-miscible organic solvent (methanol, ethanol, acetone, acetonitrile, etc.) to the plasma, acidify the mixture (pH 3.0 or below) and then allow it to stand at room temperature for about 1 week. […] Ascochlorin, Compound-6 or Compound-14 is dissolved in a small amount of an organic solvent and added to serum.
At definite points, the serum was sampled and divided into 2 portions. Ten times as much acetonitrile was added to one of these portions and the mixture was centrifuged. Then the free compound in the serum was determined. To the other portion, 10 times as much acetonitrile containing 1% of acetic acid was added. After allowing to stand at room temperature for 1 week, the mixture was centrifuged and the free compound was determined (FIG. 10).

[5] = system: db/db mice; experiment: Calcium metabolism in db/db mice; format: in vivo, mouse; conditions: administration for 1 week
From the text: RXR also forms a heterodimer with a nuclear receptor, VDR, which acts with active vitamin D3 (1a,25-dihydrocyvitamin D3) as a ligand. However, no study has been made so far how the formation of this heterodimer means in vivo. Thus the effect of this heterodimer on gene transcription and, in its turn, its physiological meaning still remain unknown. Activated vitamin D3 is essential for bone development and growth in children. Also, it is essential for preventing osteoporosis and bone fracture in aged and sick persons. In spite of such meaningful effects, studies have not been conducted to clarify the function of the heterodimer of VDR with RXR. The inventors studied calcium metabolism in db/db mice and the effect of Compound-14 on the calcium metabolism. This study was partly reported in 1992 (Tomoyoshi Hosokawa, Nogei Kagaku Kai-shi (J. Agr. Chem.), 66:1221-1226, 1992). Compared with normal litter of the same age, db/db mice show abnormally high levels of urinary calcium, blood calcium, blood calcitonin and parathyroid hormone. […] By feeding db/db mice over a long time of period (4 weeks), it was found out that these animals suffered form a decrease in bone mineral density compared with normal litter of the same age. […]

Compound	7-α-Hydorxycholesterol ([1]; 5 mg/kg oral once a day)	7-α-Hydorxycholesterol (conversion rate) ([1]; 5 mg/kg oral once a day)	Serum total cholesterol, % change ([2]; 0.01% in feed)	Serum total cholesterol ([2]; 0.01% in feed)	Serum total cholesterol, % change ([2]; 0.04% in feed)	Serum total cholesterol ([2]; 0.04% in feed)	toxicity when present in a free state in the blood [3]	7-α-Hydorxycholesterol ([1]; 20 mg/kg oral once a day)	7-α-Hydorxycholesterol (conversion rate) ([1]; 20 mg/kg oral once a day)	enzymatic activity and yield of colesterol-7α-hydroxylase per unit protein weight ([1]; ground liver of orally treated rats)	free compound in serum [4]	urinary calcium, blood calcium and calcitonin levels [5]
3-[5-[l(R),2(S),6(S)-trimethyl-3-oxocylohexyl]-3-methyl-2,4-pentadienyl]-2,4-dihydroxy-5-chloro-6-methylbenzaldehyde [Compound-1]	3.80 nM/hr/mg protein	5.51%	−11%	138 ± 5.1 mg/dL	−15%	131 ± 6.7 mg/dL	strong toxicity	–	–	–	–	–
COc1c(Cl)c(C)c(C=O)c(O)c1C/C=C(C)/C=C/[C@@]1(C)[C@H](C)CCC(=O)[C@@H]1C [Compound-6, 4-O-methylASC]	–	–	−16% and −13%	93 ± 4.4 mg/dL and 103 ± 1.2 mg/dL	–	92 ± 3.3 mg/dL and 75 ± 4.4 mg/dL	–	3.61 nM/hr/mg protein	5.30%	elevated dose-dependently	scarcely detected	–
CC(/C=C/[C@@]1(C)[C@H](C)CCC(=O)[C@@H]1C)=C\Cc1c(O)c(C=O)c(C)c(Cl)c1OCC(=O)O [Compound-14, 4-O-carboxymethylASC]	–	–	−7% and −13%	109 ± 2.8 mg/dL and 174 ± 4.9 mg/dL	–	144 ± 7.2 mg/dL and 100 ± 4.4 mg/dL	–	4.47 nM/hr/mg protein	7.06%	–	scarcely detected	significantly lowered
CC(/C=C/C1(C)C(C)C=CC(=O)C1C)=C\Cc1c(O)c(Cl)c(C)c(C=O)c1O (stereo not shown) [Compound-26]	3.31 nM/hr/mg protein	4.00%	−10%	132 ± 6.1 mg/dL	−24%	110 ± 5.4 mg/dL	strong toxicity	–	–	–	–	–
